From ChEMBL document CHEMBL4507268 (2021)

How the values were obtained:
Conditions in all cases: Compound concentration 1000.0 nM
[1] = target: T1, Ephrin type-B receptor 3 (Homo sapiens) (UniProt P54753)
T1 sequence (whole entry): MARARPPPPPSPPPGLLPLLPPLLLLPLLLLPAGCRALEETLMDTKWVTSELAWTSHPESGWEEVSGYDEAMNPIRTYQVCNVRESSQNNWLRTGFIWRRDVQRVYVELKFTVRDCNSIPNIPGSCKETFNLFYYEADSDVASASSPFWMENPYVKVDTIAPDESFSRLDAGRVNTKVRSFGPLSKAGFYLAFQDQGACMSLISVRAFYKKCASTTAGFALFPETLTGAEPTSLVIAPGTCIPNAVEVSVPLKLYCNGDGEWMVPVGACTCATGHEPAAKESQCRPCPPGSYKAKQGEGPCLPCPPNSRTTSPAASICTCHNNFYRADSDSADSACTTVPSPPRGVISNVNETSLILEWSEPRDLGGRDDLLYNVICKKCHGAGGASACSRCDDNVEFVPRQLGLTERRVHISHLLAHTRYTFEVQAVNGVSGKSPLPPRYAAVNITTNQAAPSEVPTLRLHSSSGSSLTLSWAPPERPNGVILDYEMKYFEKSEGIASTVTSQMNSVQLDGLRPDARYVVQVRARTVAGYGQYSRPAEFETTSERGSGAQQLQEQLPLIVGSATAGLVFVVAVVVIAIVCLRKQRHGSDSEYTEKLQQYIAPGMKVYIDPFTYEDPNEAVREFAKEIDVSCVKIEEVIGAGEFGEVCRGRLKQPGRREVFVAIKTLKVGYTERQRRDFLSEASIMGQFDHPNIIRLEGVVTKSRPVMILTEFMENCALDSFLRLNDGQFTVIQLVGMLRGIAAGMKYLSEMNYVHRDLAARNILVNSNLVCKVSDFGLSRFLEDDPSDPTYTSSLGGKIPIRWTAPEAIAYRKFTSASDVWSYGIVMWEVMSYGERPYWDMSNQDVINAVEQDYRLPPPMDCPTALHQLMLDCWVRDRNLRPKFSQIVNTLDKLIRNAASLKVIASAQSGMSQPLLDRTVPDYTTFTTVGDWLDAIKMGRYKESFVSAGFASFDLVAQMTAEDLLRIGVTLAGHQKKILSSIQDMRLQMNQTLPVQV

[2] = target: Mitogen-activated protein kinase 8 (Homo sapiens) (UniProt P45983)
[3] = target: T2, Phosphorylase b kinase regulatory subunit alpha, liver isoform (Homo sapiens) (UniProt P46019)
T2 sequence (whole entry): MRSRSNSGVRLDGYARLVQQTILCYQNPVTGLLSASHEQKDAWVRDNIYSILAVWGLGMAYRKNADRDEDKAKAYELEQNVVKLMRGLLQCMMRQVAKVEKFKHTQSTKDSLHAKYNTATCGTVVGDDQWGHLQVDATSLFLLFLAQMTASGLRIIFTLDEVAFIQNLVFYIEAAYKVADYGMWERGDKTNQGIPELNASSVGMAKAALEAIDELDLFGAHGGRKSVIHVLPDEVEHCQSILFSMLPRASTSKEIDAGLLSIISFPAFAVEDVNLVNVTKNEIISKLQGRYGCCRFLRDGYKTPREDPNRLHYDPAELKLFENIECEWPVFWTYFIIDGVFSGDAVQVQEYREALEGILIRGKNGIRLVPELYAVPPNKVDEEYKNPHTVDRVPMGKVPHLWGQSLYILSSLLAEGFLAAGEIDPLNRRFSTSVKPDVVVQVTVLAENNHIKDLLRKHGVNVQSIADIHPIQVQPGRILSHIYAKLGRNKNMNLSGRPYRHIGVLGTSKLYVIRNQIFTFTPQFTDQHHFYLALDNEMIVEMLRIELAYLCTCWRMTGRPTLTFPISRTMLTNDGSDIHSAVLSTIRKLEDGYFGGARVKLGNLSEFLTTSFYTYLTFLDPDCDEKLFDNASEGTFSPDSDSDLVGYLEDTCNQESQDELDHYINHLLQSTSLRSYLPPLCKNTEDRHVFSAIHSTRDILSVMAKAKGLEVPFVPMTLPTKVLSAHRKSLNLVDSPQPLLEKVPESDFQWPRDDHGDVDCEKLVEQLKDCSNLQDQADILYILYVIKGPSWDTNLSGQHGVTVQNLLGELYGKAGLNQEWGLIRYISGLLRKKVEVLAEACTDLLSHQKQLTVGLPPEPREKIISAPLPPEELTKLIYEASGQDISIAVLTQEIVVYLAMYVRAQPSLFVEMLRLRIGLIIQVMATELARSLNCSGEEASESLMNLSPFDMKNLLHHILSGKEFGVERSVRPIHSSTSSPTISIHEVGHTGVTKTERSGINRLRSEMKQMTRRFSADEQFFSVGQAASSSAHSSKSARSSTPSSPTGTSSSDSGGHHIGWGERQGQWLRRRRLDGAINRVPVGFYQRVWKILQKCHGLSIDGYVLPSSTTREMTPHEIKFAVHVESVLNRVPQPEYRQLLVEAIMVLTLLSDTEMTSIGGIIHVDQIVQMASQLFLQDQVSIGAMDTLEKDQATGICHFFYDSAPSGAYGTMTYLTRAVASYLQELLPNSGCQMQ

[4] = target: T3, Serine/threonine-protein kinase TBK1 (Homo sapiens) (UniProt Q9UHD2)
T3 sequence (whole entry): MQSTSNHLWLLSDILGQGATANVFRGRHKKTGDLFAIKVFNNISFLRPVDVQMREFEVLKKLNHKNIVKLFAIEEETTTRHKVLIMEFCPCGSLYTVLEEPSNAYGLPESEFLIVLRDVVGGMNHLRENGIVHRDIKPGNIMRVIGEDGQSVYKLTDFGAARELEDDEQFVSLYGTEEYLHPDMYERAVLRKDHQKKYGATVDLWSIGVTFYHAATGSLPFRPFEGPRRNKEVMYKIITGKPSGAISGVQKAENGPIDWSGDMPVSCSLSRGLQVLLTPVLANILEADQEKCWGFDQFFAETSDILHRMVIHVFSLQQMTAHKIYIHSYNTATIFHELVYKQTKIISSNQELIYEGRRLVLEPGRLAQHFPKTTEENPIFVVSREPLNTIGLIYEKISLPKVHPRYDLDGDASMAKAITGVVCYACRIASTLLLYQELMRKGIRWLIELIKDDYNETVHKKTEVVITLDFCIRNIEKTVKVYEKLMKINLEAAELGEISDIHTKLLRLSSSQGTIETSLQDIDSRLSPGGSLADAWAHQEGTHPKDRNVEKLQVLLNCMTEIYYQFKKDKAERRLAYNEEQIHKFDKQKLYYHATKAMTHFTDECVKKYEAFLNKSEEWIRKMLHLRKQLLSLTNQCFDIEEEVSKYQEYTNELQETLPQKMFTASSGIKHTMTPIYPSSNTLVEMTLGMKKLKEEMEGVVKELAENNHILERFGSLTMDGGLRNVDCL

[5] = target: Vascular endothelial growth factor receptor 2 (Homo sapiens) (UniProt P35968)

Measured: residual activity

Vascular endothelial growth factor receptor 2 (Homo sapiens), sequence (P35968 whole entry): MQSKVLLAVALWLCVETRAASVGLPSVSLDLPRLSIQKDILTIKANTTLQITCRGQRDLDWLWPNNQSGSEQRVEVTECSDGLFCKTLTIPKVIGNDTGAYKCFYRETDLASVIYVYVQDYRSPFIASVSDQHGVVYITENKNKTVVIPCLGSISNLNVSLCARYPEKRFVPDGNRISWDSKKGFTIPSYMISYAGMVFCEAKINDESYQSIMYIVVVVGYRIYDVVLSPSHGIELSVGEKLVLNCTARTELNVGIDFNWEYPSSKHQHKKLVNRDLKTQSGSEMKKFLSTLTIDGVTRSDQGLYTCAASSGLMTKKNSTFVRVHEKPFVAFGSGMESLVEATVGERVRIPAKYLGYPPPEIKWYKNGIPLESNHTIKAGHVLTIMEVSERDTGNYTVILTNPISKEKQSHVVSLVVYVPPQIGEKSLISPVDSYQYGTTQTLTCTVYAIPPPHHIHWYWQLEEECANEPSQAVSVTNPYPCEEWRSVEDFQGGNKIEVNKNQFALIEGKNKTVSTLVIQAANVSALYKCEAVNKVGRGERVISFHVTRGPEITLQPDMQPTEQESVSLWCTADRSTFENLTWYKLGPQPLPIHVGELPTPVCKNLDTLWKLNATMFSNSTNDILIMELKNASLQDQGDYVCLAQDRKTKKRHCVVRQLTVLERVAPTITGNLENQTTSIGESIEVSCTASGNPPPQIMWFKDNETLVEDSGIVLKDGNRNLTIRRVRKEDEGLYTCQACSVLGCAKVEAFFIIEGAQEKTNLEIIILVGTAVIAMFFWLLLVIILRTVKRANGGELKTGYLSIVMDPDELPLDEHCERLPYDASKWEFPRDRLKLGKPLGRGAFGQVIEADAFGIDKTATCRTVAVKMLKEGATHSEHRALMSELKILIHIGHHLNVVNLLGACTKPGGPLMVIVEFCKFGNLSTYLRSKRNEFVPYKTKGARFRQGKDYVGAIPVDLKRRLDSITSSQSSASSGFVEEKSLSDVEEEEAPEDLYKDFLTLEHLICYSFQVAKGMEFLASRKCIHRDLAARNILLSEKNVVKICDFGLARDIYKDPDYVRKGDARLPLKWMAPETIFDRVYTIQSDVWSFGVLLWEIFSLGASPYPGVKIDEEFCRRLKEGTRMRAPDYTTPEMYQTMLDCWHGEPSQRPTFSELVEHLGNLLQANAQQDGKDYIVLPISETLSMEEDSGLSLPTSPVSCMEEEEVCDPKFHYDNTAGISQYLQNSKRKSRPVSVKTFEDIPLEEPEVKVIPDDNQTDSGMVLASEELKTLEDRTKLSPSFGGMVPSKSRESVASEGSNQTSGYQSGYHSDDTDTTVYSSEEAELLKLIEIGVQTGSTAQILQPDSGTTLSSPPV
Mitogen-activated protein kinase 8 (Homo sapiens), sequence (P45983 whole entry, canonical isoform): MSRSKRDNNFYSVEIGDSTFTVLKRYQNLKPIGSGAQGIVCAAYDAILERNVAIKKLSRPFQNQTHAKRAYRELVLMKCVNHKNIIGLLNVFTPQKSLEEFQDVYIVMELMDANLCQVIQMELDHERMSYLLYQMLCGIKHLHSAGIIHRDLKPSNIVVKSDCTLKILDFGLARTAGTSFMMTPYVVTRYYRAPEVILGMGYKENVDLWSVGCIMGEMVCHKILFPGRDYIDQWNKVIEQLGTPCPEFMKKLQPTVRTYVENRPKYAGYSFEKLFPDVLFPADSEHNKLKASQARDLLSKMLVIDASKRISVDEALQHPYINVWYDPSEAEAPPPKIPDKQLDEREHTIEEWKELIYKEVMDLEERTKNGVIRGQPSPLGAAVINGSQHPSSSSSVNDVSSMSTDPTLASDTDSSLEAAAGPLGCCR

Cc1nc(C2CCN(C(=O)c3ccc(OC(F)(F)F)cc3N)CC2)c2ncc(N3CCN(C)CC3)cc2n1 [BAY-693]
inactive: [1] 100% | [2] 98% | [3] 100% | [4] 100% | [5] 93%

CN1CCN(c2cnc3c(C4CCN(C(=O)c5ccc(OC(F)(F)F)cc5N)CC4)ncnc3c2)CC1 [BAY-885]
inactive: [1] 100% | [2] 97% | [3] 100% | [4] 61% | [5] 100%
